Laboratory results published in patent US20260297081A1, “COMPOUNDS AND METHODS OF TREATING CANCERS” (Cullgen Inc., priority 2023, published 2026).

Columns and labels:
[1] = tested on: Calu-1 cells; test: Anti-proliferation (viability) of NSCLC Calu-1 cells, 3 days (Table 7, FIG. 2B); format: cell-based; conditions: Homo sapiens, 72 h; Calu-1 cells, 3 days, 10-point serial dilution; read-out: GI IC50 in Calu-1
Outline: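 Cells were exposed to heterobifunctional compounds across a 10-point serial dilution, for 3 days with Calu-1 and 6 days with T47D. A negative control was included that keeps the DDB1 ligand and linker but carries a modified warhead that impairs CDK4 binding.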

[2] = tested on: MCF7 cells; test: Anti-proliferation (viability) of MCF7 cells (Table 7, FIG. 2B); format: cell-based; conditions: Homo sapiens, MCF7, MCF7 cells, 3-6 days, 10-point serial dilution; read-out: GI IC50 in MCF-7

| Compound | IC50 [1] | IC50 [2] |
| --- | --- | --- |
| CC(=O)c1c(C)c2cnc(Nc3ccc(CN4CCN(CC(=O)N5CCC(Nc6nc(NC(C)C)ccc6C(=O)Nc6cc7n(n6)CCC7)CC5)CC4)cn3)nc2n(C2CCCC2)c1=O [CPD-530, 2-((1-(2-(4-((6-((6-acetyl-8-cyclopentyl-5-methyl-7-oxo-7,8-dihydropyrido[2,3-d]pyrimidin-2-yl)amino)pyridin-3-yl)methyl)piperazin-1-yl)acetyl)piperidin-4-yl)amino)-N-(5,6-dihydro-4H-pyrrolo[1,2-b]pyrazol-2-yl)-6-(isopropylamino)nicotinamide] | 0.01 to 0.05 µM | > 0.1 µM |
| CC(=O)c1c(C)c2cnc(Nc3ccc(N4CCN(CC(=O)NC5CC6(C5)CC(Nc5cc(C)ccc5C(=O)Nc5cc(C)on5)C6)CC4)cn3)nc2n(C2CCCC2)c1=O (centres unmarked) [CPD-286, 2-((6-(2-(4-(6-((6-acetyl-8-cyclopentyl-5-methyl-7-oxo-7,8-dihydropyrido[2,3-d]pyrimidin-2-yl)amino)pyridin-3-yl)piperazin-1-yl)acetamido)spiro[3.3]heptan-2-yl)amino)-4-methyl-N-(5-methylisoxazol-3-yl)benzamide] | ≥ 0.05 µM | > 0.1 µM |
| CC(=O)c1c(C)c2cnc(Nc3ccc(N4CCN(CC(=O)NC5CC6(C5)CC(Nc5nc(NC(C)C)ccc5C(=O)Nc5cn7c(n5)CCC7)C6)CC4)cn3)nc2n(C2CCCC2)c1=O (centres unmarked) [CPD-566, 2-((6-(2-(4-(6-((6-acetyl-8-cyclopentyl-5-methyl-7-oxo-7,8-dihydropyrido[2,3-d]pyrimidin-2-yl)amino)pyridin-3-yl)piperazin-1-yl)acetamido)spiro[3.3]heptan-2-yl)amino)-N-(6,7-dihydro-5H-pyrrolo[1,2-a]imidazol-2-yl)-6-(isopropylamino)nicotinamide] | ≤ 0.01 µM | < 0.05 µM |
| CC(=O)c1c(C)c2cnc(Nc3ccc(N4CCN(CC(=O)N[C@H]5CC[C@H](CNc6nc(NC(C)C)ccc6C(=O)Nc6cn(C)c(C7CC7)n6)CC5)CC4)cn3)nc2n(C2CCCC2)c1=O [CPD-275, 2-(((trans-4-(2-(4-(6-((6-acetyl-8-cyclopentyl-5-methyl-7-oxo-7,8-dihydropyrido[2,3-d]pyrimidin-2-yl)amino)pyridin-3-yl)piperazin-1-yl)acetamido)cyclohexyl)methyl)amino)-N-(2-cyclopropyl-1-methyl-1H-imidazol-4-yl)-6-(isopropylamino)nicotinamide] | ≥ 0.05 µM | > 0.1 µM |
| [2H]C([2H])([2H])Nc1ccc(C(=O)Nc2cc(C)n(C)n2)c(N[C@H]2CC[C@H](C(=O)N3CCC(N4CCN(c5ccc(Nc6ncc7c(C)c(C(C)=O)c(=O)n(C8CCCC8)c7n6)nc5)CC4)C3)CC2)n1 (some centres unmarked) [CPD-477, 2-((4-(3-(4-(6-((6-acetyl-8-cyclopentyl-5-methyl-7-oxo-7,8-dihydropyrido[2,3-d]pyrimidin-2-yl)amino)pyridin-3-yl)piperazin-1-yl)pyrrolidine-1-carbonyl)cyclohexyl)amino)-N-(1,5-dimethyl-1H-pyrazol-3-yl)-6-((methyl-d3)amino)nicotinamide] | 0.01 to 0.05 µM | > 0.1 µM |
| CC(=O)c1c(C)c2cnc(Nc3ccc(CN4CCN(C(=O)CN5CCC(Nc6nc(NC(C)C)ccc6C(=O)Nc6ccc(N(C)C)nn6)CC5)CC4)cn3)nc2n(C2CCCC2)c1=O [CPD-541, 2-((1-(2-(4-((6-((6-acetyl-8-cyclopentyl-5-methyl-7-oxo-7,8-dihydropyrido[2,3-d]pyrimidin-2-yl)amino)pyridin-3-yl)methyl)piperazin-1-yl)-2-oxoethyl)piperidin-4-yl)amino)-N-(6-(dimethylamino)pyridazin-3-yl)-6-(isopropylamino)nicotinamide] | ≤ 0.01 µM | < 0.05 µM |
| [2H]C([2H])([2H])Nc1ccc(C(=O)Nc2cn(C)c(C3CC3)n2)c(NC2CC(CNC(=O)CN3CCN(c4ccc(Nc5ncc6c(C)c(C(C)=O)c(=O)n(C7CCCC7)c6n5)nc4)CC3)C2)n1 (centres unmarked) [CPD-278, 2-((3-((2-(4-(6-((6-acetyl-8-cyclopentyl-5-methyl-7-oxo-7,8-dihydropyrido[2,3-d]pyrimidin-2-yl)amino)pyridin-3-yl)piperazin-1-yl)acetamido)methyl)cyclobutyl)amino)-N-(2-cyclopropyl-1-methyl-1H-imidazol-4-yl)-6-((methyl-d3)amino)nicotinamide] | 0.01 to 0.05 µM | > 0.1 µM |
| [2H]C([2H])([2H])Nc1ccc(C(=O)Nc2ccc(N(C)C)nn2)c(NC2CCN(C(=O)CN3CCN(Cc4ccc(Nc5ncc6c(C)c(C(C)=O)c(=O)n(C7CCCC7)c6n5)nc4)CC3)CC2)n1 [CPD-474, 2-((1-(2-(4-((6-((6-acetyl-8-cyclopentyl-5-methyl-7-oxo-7,8-dihydropyrido[2,3-d]pyrimidin-2-yl)amino)pyridin-3-yl)methyl)piperazin-1-yl)acetyl)piperidin-4-yl)amino)-N-(6-(dimethylamino)pyridazin-3-yl)-6-((methyl-d3)amino)nicotinamide] | ≤ 0.01 µM | 0.05 to 0.1 µM |
| CC(=O)c1c(C)c2cnc(Nc3ccc(N4CCN(C5CCN(C(=O)NC6CC7(C6)CC(Nc6nc(NC(C)C)ccc6C(=O)Nc6ccc(N(C)C)nn6)C7)C5)CC4)cn3)nc2n(C2CCCC2)c1=O (centres unmarked) [CPD-470, 2-((6-(3-(4-(6-((6-acetyl-8-cyclopentyl-5-methyl-7-oxo-7,8-dihydropyrido[2,3-d]pyrimidin-2-yl)amino)pyridin-3-yl)piperazin-1-yl)pyrrolidine-1-carboxamido)spiro[3.3]heptan-2-yl)amino)-N-(6-(dimethylamino)pyridazin-3-yl)-6-(isopropylamino)nicotinamide] | ≤ 0.01 µM | > 0.1 µM |
| CC(=O)c1c(C)c2cnc(Nc3ccc(N4CCC(N(C)CC(=O)N5CCC(Nc6nc(NC(C)C)ccc6C(=O)Nc6cn(C)c(C7CC7)n6)CC5)CC4)cn3)nc2n(C2CCCC2)c1=O [CPD-466, 2-((1-(N-(1-(6-((6-acetyl-8-cyclopentyl-5-methyl-7-oxo-7,8-dihydropyrido[2,3-d]pyrimidin-2-yl)amino)pyridin-3-yl)piperidin-4-yl)-N-methylglycyl)piperidin-4-yl)amino)-N-(2-cyclopropyl-1-methyl-1H-imidazol-4-yl)-6-(isopropylamino)nicotinamide] | ≤ 0.01 µM | 0.05 to 0.1 µM |
| [2H]C([2H])([2H])Nc1ccc(C(=O)Nc2ccc(N(C)C)nn2)c(NC2CC3(C2)CN(C(=O)CN(C)C2CCN(c4ccc(Nc5ncc6c(C)c(C(C)=O)c(=O)n(C7CCCC7)c6n5)nc4)CC2)C3)n1 [CPD-464, 2-((2-(N-(1-(6-((6-acetyl-8-cyclopentyl-5-methyl-7-oxo-7,8-dihydropyrido[2,3-d]pyrimidin-2-yl)amino)pyridin-3-yl)piperidin-4-yl)-N-methylglycyl)-2-azaspiro[3.3]heptan-6-yl)amino)-N-(6-(dimethylamino)pyridazin-3-yl)-6-((methyl-d3)amino)nicotinamide] | ≤ 0.01 µM | < 0.05 µM |
| CC(=O)c1c(C)c2cnc(Nc3ccc(N4CC5(CN(CC(=O)NCC6CC(Nc7nc(NC(C)C)ccc7C(=O)Nc7ccc(N(C)C)nn7)C6)C5)C4)cn3)nc2n(C2CCCC2)c1=O (centres unmarked) [CPD-468, 2-((3-((2-(6-(6-((6-acetyl-8-cyclopentyl-5-methyl-7-oxo-7,8-dihydropyrido[2,3-d]pyrimidin-2-yl)amino)pyridin-3-yl)-2,6-diazaspiro[3.3]heptan-2-yl)acetamido)methyl)cyclobutyl)amino)-N-(6-(dimethylamino)pyridazin-3-yl)-6-(isopropylamino)nicotinamide] | 0.01 to 0.05 µM | > 0.1 µM |
| CC(=O)c1c(C)c2cnc(Nc3ccc(N4CC5(CN(CCC(=O)N6CC7(CC(Nc8nc(NC(C)C)ccc8C(=O)Nc8ccc(N(C)C)nn8)C7)C6)C5)C4)cn3)nc2n(C2CCCC2)c1=O [CPD-455, 2-((2-(3-(6-(6-((6-acetyl-8-cyclopentyl-5-methyl-7-oxo-7,8-dihydropyrido[2,3-d]pyrimidin-2-yl)amino)pyridin-3-yl)-2,6-diazaspiro[3.3]heptan-2-yl)propanoyl)-2-azaspiro[3.3]heptan-6-yl)amino)-N-(6-(dimethylamino)pyridazin-3-yl)-6-(isopropylamino)nicotinamide] | ≤ 0.01 µM | < 0.05 µM |
| CC(=O)c1c(C)c2cnc(Nc3ccc(N4CCC(N5CCC[C@H]5C(=O)N5CC6(CC(Nc7nc(NC(C)C)ccc7C(=O)Nc7ccc(N(C)C)nn7)C6)C5)CC4)cn3)nc2n(C2CCCC2)c1=O [CPD-544, 2-((2-((1-(6-((6-acetyl-8-cyclopentyl-5-methyl-7-oxo-7,8-dihydropyrido[2,3-d]pyrimidin-2-yl)amino)pyridin-3-yl)piperidin-4-yl)-L-prolyl)-2-azaspiro[3.3]heptan-6-yl)amino)-N-(6-(dimethylamino)pyridazin-3-yl)-6-(isopropylamino)nicotinamide] | ≤ 0.01 µM | < 0.05 µM |
| CC(C)Nc1ccc(C(=O)Nc2ccc(N(C)C)nn2)c(N[C@H]2CC[C@H](C(=O)N3CCC(N4CCN(c5ccc(Nc6ncc7cc(C(F)F)c(=O)n(C8CCCC8)c7n6)nc5)CC4)C3)CC2)n1 (stereo partly drawn) [CPD-559, 2-((trans-4-(3-(4-(6-((8-cyclopentyl-6-(difluoromethyl)-7-oxo-7,8-dihydropyrido[2,3-d]pyrimidin-2-yl)amino)pyridin-3-yl)piperazin-1-yl)pyrrolidine-1-carbonyl)cyclohexyl)amino)-N-(6-(dimethylamino)pyridazin-3-yl)-6-(isopropylamino)nicotinamide] | 0.01 to 0.05 µM | > 0.1 µM |
| CC(=O)c1c(C)c2cnc(Nc3ccc(N4CCN(C(=O)NC5CC(Nc6nc(NC(C)C)ccc6C(=O)Nc6cn(C)c(C7CC7)n6)C5)CC4)cn3)nc2n(C2CCCC2)c1=O (centres unmarked) [CPD-289, 4-(6-((6-acetyl-8-cyclopentyl-5-methyl-7-oxo-7,8-dihydropyrido[2,3-d]pyrimidin-2-yl)amino)pyridin-3-yl)-N-(3-((3-((2-cyclopropyl-1-methyl-1H-imidazol-4-yl)carbamoyl)-6-(isopropylamino)pyridin-2-yl)amino)cyclobutyl)piperazine-1-carboxamide] | ≥ 0.05 µM | > 0.1 µM |
